By Kd is commonly meant a measure of binding affinity in units of concentration. In general, LD50 refers to the dose at which mortality reaches 50%. One may read the EC50 as the concentration that produces a half-maximal response. A lower EC50 goes with a more potent agent.

Each structure is given as a SMILES string.

In series [1] the target is Sigma non-opioid intracellular receptor 1 (Homo sapiens, UniProt Q99720). In words: Binding affinity to sigma 1 receptor (unknown origin) assessed as dissociation constant by competitive binding assay.
The target in series [2] is Sigma intracellular receptor 2 (Homo sapiens, UniProt Q5BJF2). In words: Binding affinity to sigma 2 receptor (unknown origin) assessed as dissociation constant by competitive binding assay.
Series [3] in a line: Acute toxicity in iv dosed mouse assessed as lethal dose incubated for 72 hrs. Format: organism-based. The note with it: in vivo.
Series [4] is described as follows: Acute toxicity in ip dosed mouse assessed as lethal dose incubated for 24 hrs. Format: organism-based. As to conditions: in vivo.
The nature of series [5]: Acute toxicity in po dosed mouse assessed as lethal dose incubated for 72 hrs. Format: organism-based. The note with it: in vivo.
Series [6] in a line: Drug tolerance in sc dosed dog. It counts as toxicity, organism-based, Canis lupus familiaris. The note with it: in vivo.
Series [7] has as its target T1, Trace amine-associated receptor 1 (Homo sapiens, UniProt Q96RJ0).
T1 sequence (Q96RJ0 whole entry): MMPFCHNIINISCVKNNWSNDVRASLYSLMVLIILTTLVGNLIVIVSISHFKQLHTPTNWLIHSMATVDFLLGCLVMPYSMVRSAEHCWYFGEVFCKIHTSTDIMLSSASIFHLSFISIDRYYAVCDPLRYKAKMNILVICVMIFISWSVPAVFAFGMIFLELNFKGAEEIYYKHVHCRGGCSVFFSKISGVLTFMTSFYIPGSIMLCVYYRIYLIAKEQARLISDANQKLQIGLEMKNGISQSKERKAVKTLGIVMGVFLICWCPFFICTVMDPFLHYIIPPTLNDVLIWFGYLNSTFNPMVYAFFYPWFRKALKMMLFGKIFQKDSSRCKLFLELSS
In words: Agonist activity at human TAAR1 stably expressed in HEK293 cells incubated for 30 mins by cAMP assay. It counts as functional, cell-based.

The target in series [8] is Trace amine-associated receptor 1 (Rattus norvegicus, UniProt Q923Y9). In words: Agonist activity at rat TAAR1 stably expressed in HEK293 cells incubated for 30 mins by cAMP assay. Format: functional, cell-based.
Series [9] has as its target Trace amine-associated receptor 1 (Mus musculus, UniProt Q923Y8). Nature of the series: Agonist activity at mouse TAAR1 stably expressed in HEK293 cells incubated for 30 mins by cAMP assay. Format: functional, cell-based. For orientation: Cyclic AMP is a second messenger, typically raised through Gs and lowered through Gi signalling.

Sequence of Trace amine-associated receptor 1 (Mus musculus, UniProt Q923Y8) (Q923Y8 whole entry): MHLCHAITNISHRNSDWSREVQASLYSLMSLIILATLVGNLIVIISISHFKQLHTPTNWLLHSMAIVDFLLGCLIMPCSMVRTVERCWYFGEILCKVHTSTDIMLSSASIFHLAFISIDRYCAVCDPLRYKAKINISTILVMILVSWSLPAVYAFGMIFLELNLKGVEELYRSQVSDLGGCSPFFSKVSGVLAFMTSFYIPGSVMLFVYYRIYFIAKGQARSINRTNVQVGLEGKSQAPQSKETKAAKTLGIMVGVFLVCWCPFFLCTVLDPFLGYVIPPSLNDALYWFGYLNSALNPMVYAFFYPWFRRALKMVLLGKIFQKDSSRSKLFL
Sequence of Sigma intracellular receptor 2 (Q5BJF2 whole entry): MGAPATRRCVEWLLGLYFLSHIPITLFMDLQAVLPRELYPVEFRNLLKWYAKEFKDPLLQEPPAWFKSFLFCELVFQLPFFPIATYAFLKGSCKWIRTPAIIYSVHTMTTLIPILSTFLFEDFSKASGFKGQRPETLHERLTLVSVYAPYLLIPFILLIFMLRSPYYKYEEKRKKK
Sequence of Sigma non-opioid intracellular receptor 1 (Q99720 whole entry): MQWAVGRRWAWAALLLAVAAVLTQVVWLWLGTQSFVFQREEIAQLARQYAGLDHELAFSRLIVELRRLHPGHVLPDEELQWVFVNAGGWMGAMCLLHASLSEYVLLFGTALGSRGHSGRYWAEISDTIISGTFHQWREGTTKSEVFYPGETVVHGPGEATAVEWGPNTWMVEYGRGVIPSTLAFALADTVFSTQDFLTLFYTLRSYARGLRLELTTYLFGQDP
Sequence of Trace amine-associated receptor 1 (Rattus norvegicus, UniProt Q923Y9) (Q923Y9 whole entry): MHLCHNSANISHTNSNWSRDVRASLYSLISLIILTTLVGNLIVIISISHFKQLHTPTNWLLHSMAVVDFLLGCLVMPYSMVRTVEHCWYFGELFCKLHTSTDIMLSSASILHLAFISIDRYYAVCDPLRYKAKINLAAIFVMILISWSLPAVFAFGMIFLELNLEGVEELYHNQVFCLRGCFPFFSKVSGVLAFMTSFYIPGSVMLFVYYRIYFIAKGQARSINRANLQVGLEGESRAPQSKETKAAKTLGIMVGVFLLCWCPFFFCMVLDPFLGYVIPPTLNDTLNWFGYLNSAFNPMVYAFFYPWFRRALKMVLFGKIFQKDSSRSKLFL

With `CNCCc1ccc(O)cc1`, the Kd in series [1] worked out at 12400 nM; in [2], 6600 nM.
For `COc1cc2c(c(O)c1OC)C(C)N(C)CC2` (centres undefined), the LD50 at 72 h turned out to be 52.2 mg/kg in series [3] and 200 mg/kg in [5]. In addition, in [4], the LD50 at 24 h came out at 115 mg/kg. In series [6], this molecule registered an Activity of 50 mg/kg.
In the case of `NCCc1ccc(O)cc1` [TYRAMINE], the figures for the EC50 in series [7], in [8] and in series [9] were 990 nM, 30 nM and 280 nM, respectively.

The values are drawn from ChEMBL document CHEMBL5149999, “The Alkaloids from Lophophora diffusa and Other "False Peyotes"” (J Nat Prod, 2021).
